Results: ChEMBL document CHEMBL4483862, “Open-source discovery of chemical leads for next-generation chemoprotective antimalarials” (2018)

Test system: Plasmodium berghei
Assay: Luciferase/luciferin-expressing antifolate-resistant parasites were used to infect a culture of HepG2 cells that were pre-incubated with compounds. Infected hepatocytes emit light due to the luciferase reaction. Assay results are presented as the percent inhibition of light emission compared to control. […]
Format: functional
Conditions: sporozoite; for IC90: read-out: LUCIFERASE INFECTION ASSAY - IC90

## CCCCNC(=O)c1c(NC(=O)COc2ccccc2)nc2ccccn12
FFLUC_HILL_SLOPE 15.1, FFLUC_R_SQUARED 0.601, PBLUC_HILL_SLOPE 2.91, PBLUC_R_SQUARED 0.515, read-out: LUCIFERASE INFECTION ASSAY - IC50
  IC50: 5.13 µM
  IC90: > 9.01 µM

## Clc1ccc(-c2cnc3cnc(-c4ccco4)cn23)cc1
FFLUC_HILL_SLOPE 15, FFLUC_R_SQUARED 0.745, PBLUC_HILL_SLOPE 1.06, PBLUC_R_SQUARED 0.544, read-out: LUCIFERASE INFECTION ASSAY - IC50
  IC50: 7.89 µM
  IC90: > 11.2 µM

## Cc1ccc(C(=O)Cn2c(=O)n(C3CCCCC3)c(=O)c3ccccc32)cc1
FFLUC_HILL_SLOPE 15.7, FFLUC_R_SQUARED 0.382, PBLUC_HILL_SLOPE 31.1, PBLUC_R_SQUARED 0.0716, read-out: LUCIFERASE INFECTION ASSAY - IC50
  IC50: > 8.77 µM
  IC90: > 8.77 µM

## Cc1c(C(=O)C(F)(F)F)c(-c2nn(-c3ccccc3)c(NC(=O)C(F)(F)F)c2C(=O)C(F)(F)F)c(C)n1-c1ccc(Br)cc1
FFLUC_HILL_SLOPE 15.1, FFLUC_R_SQUARED 0.397, PBLUC_HILL_SLOPE 2.07, PBLUC_R_SQUARED 0.0694, read-out: LUCIFERASE INFECTION ASSAY - IC50
  IC50: 6.64 µM
  IC90: > 10 µM

## COC(=O)c1ccc(O)c(CSc2ccc(Cl)cc2)c1
FFLUC_HILL_SLOPE 15.4, FFLUC_R_SQUARED 0.267, PBLUC_HILL_SLOPE 7.94, PBLUC_R_SQUARED 0.227, read-out: LUCIFERASE INFECTION ASSAY - IC50
  IC50: 8.54 µM
  IC90: > 10.7 µM

## Cc1oc2cc(OCC(=O)N3CCc4ccccc43)ccc2c(=O)c1-c1c(F)cccc1Cl
FFLUC_HILL_SLOPE 15.3, FFLUC_R_SQUARED 0.621, read-out: LUCIFERASE INFECTION ASSAY - IC50
  IC50: > 10 µM
  IC90: > 10 µM

## Clc1ccc(-c2cnc3cnc(-c4cnn(Cc5ccccc5)c4)cn23)cc1
FFLUC_HILL_SLOPE 15.7, FFLUC_R_SQUARED 0.271, HEPG2TOX_HILL_SLOPE 2.48, HEPG2TOX_R_SQUARED 0.0283, PBLUC_HILL_SLOPE 11.5, PBLUC_R_SQUARED 0.641, read-out: LUCIFERASE INFECTION ASSAY - IC50
  IC50: 2.73 µM
  IC90: 3.3 µM

## CCCNC(=O)c1c(NC(=O)c2ccc(C)cc2)nc2ccc(C)cn12
FFLUC_HILL_SLOPE 15.6, FFLUC_R_SQUARED 0.337, HEPG2TOX_HILL_SLOPE 1.6, HEPG2TOX_R_SQUARED 0.209, PBLUC_HILL_SLOPE 10.4, PBLUC_R_SQUARED 0.336, read-out: LUCIFERASE INFECTION ASSAY - IC50
  IC50: 3.85 µM
  IC90: 4.76 µM

## Cc1ccc(CNC(=O)c2cc(-c3ccccc3)nn2-c2ccccc2)cc1
FFLUC_HILL_SLOPE 15.6, FFLUC_R_SQUARED 0.349, read-out: LUCIFERASE INFECTION ASSAY - IC50
  IC50: > 10 µM
  IC90: > 10 µM

## CCN(CC)c1ccc(NC(=O)c2cccc(N3C(=O)c4ccccc4C3=O)c2)cc1S(=O)(=O)Nc1ccccc1OC
FFLUC_HILL_SLOPE 15.4, FFLUC_R_SQUARED 0.773, PBLUC_HILL_SLOPE 13.2, PBLUC_R_SQUARED 0.21, read-out: LUCIFERASE INFECTION ASSAY - IC50
  IC50: 9.38 µM
  IC90: > 10 µM

## O=S(=O)(Nc1ccc(C(F)(F)F)cc1)c1ccc(S(=O)(=O)c2ncc(C(F)(F)F)cc2Cl)s1
FFLUC_HILL_SLOPE 15.7, FFLUC_R_SQUARED 0.198, HEPG2TOX_HILL_SLOPE 0.681, HEPG2TOX_R_SQUARED 0.155, read-out: LUCIFERASE INFECTION ASSAY - IC50
  IC50: > 5.99 µM
  IC90: > 5.99 µM

## CC1CC(OCC(O)CN2CCN(c3ccc(F)cc3)CC2)CC(C)(C)C1 (stereo not given)
FFLUC_HILL_SLOPE 15.4, FFLUC_R_SQUARED 0.216, PBLUC_HILL_SLOPE 1.14, PBLUC_R_SQUARED 0.115, read-out: LUCIFERASE INFECTION ASSAY - IC50
  IC50: > 7.31 µM
  IC90: > 7.31 µM

## O=C1C=C(c2ccc(Cl)cc2)C(=O)N1Nc1ccc(Cl)cc1Cl
FFLUC_HILL_SLOPE 15.4, FFLUC_R_SQUARED 0.324, HEPG2TOX_HILL_SLOPE 12.8, HEPG2TOX_R_SQUARED 0.543, PBLUC_HILL_SLOPE 10.1, PBLUC_R_SQUARED 0.012, read-out: LUCIFERASE INFECTION ASSAY - IC50
  IC50: 8.35 µM
  IC90: > 8.98 µM

## Cc1[nH]c2ccccc2c1/C=N/n1c(-c2ccc(Cl)cc2Cl)cs/c1=N\CC1CCCO1 (stereo not given)
FFLUC_HILL_SLOPE 15.4, FFLUC_R_SQUARED 0.637, HEPG2TOX_HILL_SLOPE 0.309, HEPG2TOX_R_SQUARED 0.658, PBLUC_HILL_SLOPE 1.1, PBLUC_R_SQUARED 0.559, read-out: LUCIFERASE INFECTION ASSAY - IC50
  IC50: 0.923 µM
  IC90: 6.77 µM

## CCOC(=O)/C(C)=N/Nc1ccc(OC(F)(F)F)cc1
FFLUC_HILL_SLOPE 15.6, FFLUC_R_SQUARED 0.429, HEPG2TOX_HILL_SLOPE 8.88, HEPG2TOX_R_SQUARED 0.352, PBLUC_HILL_SLOPE 1.63, PBLUC_R_SQUARED 0.496, read-out: LUCIFERASE INFECTION ASSAY - IC50
  IC50: 9.31 µM
  IC90: > 11.4 µM

## O=[N+]([O-])c1cc(Cl)ccc1N1CCN(c2ncnc3sc4c(c23)CCC4)CC1
FFLUC_HILL_SLOPE 15.4, FFLUC_R_SQUARED 0.646, read-out: LUCIFERASE INFECTION ASSAY - IC50
  IC50: > 10 µM
  IC90: > 10 µM

## COc1ccc(Cl)cc1NC(=O)C(C)N1CCC(c2c[nH]c3ccccc23)CC1 (stereo not given)
FFLUC_HILL_SLOPE 15.4, FFLUC_R_SQUARED 0.69, PBLUC_HILL_SLOPE 100, PBLUC_R_SQUARED 0.101, read-out: LUCIFERASE INFECTION ASSAY - IC50
  IC50: 4.73 µM
  IC90: 4.83 µM

## Cc1ccc2nc(NC(=O)c3ccc(F)c(F)c3)c(C(=O)NC3CCCC3)n2c1
FFLUC_HILL_SLOPE 15.6, FFLUC_R_SQUARED 0.751, HEPG2TOX_HILL_SLOPE 0.983, HEPG2TOX_R_SQUARED 0.896, PBLUC_HILL_SLOPE 4.3, PBLUC_R_SQUARED 0.744, read-out: LUCIFERASE INFECTION ASSAY - IC50
  IC50: 0.8 µM
  IC90: 1.33 µM

## O=C(NC1CCN(Cc2ccccc2)C1)c1cc2cc(Br)ccc2[nH]1 (stereo not given)
FFLUC_HILL_SLOPE 15.5, FFLUC_R_SQUARED 0.545, HEPG2TOX_HILL_SLOPE 1.06, HEPG2TOX_R_SQUARED 0.919, PBLUC_HILL_SLOPE 3.35, PBLUC_R_SQUARED 0.069, read-out: LUCIFERASE INFECTION ASSAY - IC50
  IC50: 7.09 µM
  IC90: > 10 µM

## CC(C)N(C(=O)COC(=O)C1=NNC(=O)CC1)C(C)C
FFLUC_HILL_SLOPE 15.7, FFLUC_R_SQUARED 0.158, read-out: LUCIFERASE INFECTION ASSAY - IC50
  IC50: > 10 µM
  IC90: > 10 µM

## CCOc1ccc(/C=C/C2=Cc3c(sc(NC(=O)COC(=O)c4cccc(S(=O)(=O)N5CCc6ccccc65)c4)c3C#N)C(C)(C)C2)cc1
FFLUC_HILL_SLOPE 15.6, FFLUC_R_SQUARED 0.606, read-out: LUCIFERASE INFECTION ASSAY - IC50
  IC50: > 10 µM
  IC90: > 10 µM

## c1ccc(Sc2c(-c3ccccc3)cc3ccccn23)cc1
FFLUC_HILL_SLOPE 15.3, FFLUC_R_SQUARED 0.586, PBLUC_HILL_SLOPE 15.5, PBLUC_R_SQUARED 0.389, read-out: LUCIFERASE INFECTION ASSAY - IC50
  IC50: 8.6 µM
  IC90: 9.91 µM

## Cc1cc(C)c(-c2csc(NC(=O)c3cc(-c4ccccc4)nn3-c3ccccc3)n2)c(C)c1
FFLUC_HILL_SLOPE 15.4, FFLUC_R_SQUARED 0.775, read-out: LUCIFERASE INFECTION ASSAY - IC50
  IC50: > 10 µM
  IC90: > 10 µM

## OCc1ccc(-c2cnc3ccc(-c4cccc(OC(F)(F)F)c4)nn23)cc1
FFLUC_HILL_SLOPE 15.5, FFLUC_R_SQUARED 0.126, HEPG2TOX_HILL_SLOPE 8.34, HEPG2TOX_R_SQUARED 0.955, PBLUC_HILL_SLOPE 1.79, PBLUC_R_SQUARED 0.869, read-out: LUCIFERASE INFECTION ASSAY - IC50
  IC50: 1.01 µM
  IC90: 3.46 µM

## COC(=O)c1sc(N)c(C(=O)OC)c1COC(=O)/C=C/c1ccc(OC(F)F)cc1
FFLUC_HILL_SLOPE 15.7, FFLUC_R_SQUARED 0.211, read-out: LUCIFERASE INFECTION ASSAY - IC50
  IC50: > 10 µM
  IC90: > 10 µM

## O=C(c1cn(-c2ccccc2)nc1-c1cccs1)N1c2ccccc2CCc2ccccc21
FFLUC_HILL_SLOPE 15.3, FFLUC_R_SQUARED 0.476, HEPG2TOX_HILL_SLOPE 1.99, HEPG2TOX_R_SQUARED 0.329, PBLUC_HILL_SLOPE 2.58, PBLUC_R_SQUARED 0.689, read-out: LUCIFERASE INFECTION ASSAY - IC50
  IC50: 6.76 µM
  IC90: > 10 µM

## COC(=O)c1ccc(-n2c(C)cc(-c3csc(NC(=O)/C=C/c4ccccc4[N+](=O)[O-])n3)c2C)cc1
FFLUC_HILL_SLOPE 15.6, FFLUC_R_SQUARED 0.621, read-out: LUCIFERASE INFECTION ASSAY - IC50
  IC50: > 10 µM
  IC90: > 10 µM

## CCCn1c(NC(=O)C2CCCN(S(=O)(=O)c3cccs3)C2)nc2ccccc21 (stereo not given)
FFLUC_HILL_SLOPE 15.6, FFLUC_R_SQUARED 0.229, read-out: LUCIFERASE INFECTION ASSAY - IC50
  IC50: > 10 µM
  IC90: > 10 µM

## N#Cc1ccc(/C=N/NC(=O)c2ccc(COc3ccccc3-c3ccccc3)cc2)cc1
FFLUC_HILL_SLOPE 15.4, FFLUC_R_SQUARED 0.374, HEPG2TOX_HILL_SLOPE 8.76, HEPG2TOX_R_SQUARED 0.561, PBLUC_HILL_SLOPE 30.2, PBLUC_R_SQUARED 0.437, read-out: LUCIFERASE INFECTION ASSAY - IC50
  IC50: 8.6 µM
  IC90: 9.24 µM

## COc1cc(NC(=O)c2sccc2Oc2ccc(C(F)(F)F)cc2[N+](=O)[O-])c(Cl)cc1Cl
FFLUC_HILL_SLOPE 15.3, FFLUC_R_SQUARED 0.803, PBLUC_HILL_SLOPE 1.96, PBLUC_R_SQUARED 0.575, read-out: LUCIFERASE INFECTION ASSAY - IC50
  IC50: 1.74 µM
  IC90: 5.34 µM
